These results are taken from US7169411B1, “Composition for delivery of biological agents and methods for the preparation thereof” (The University of Nebraska Board of Regents, priority 1997, dated 2007).

This data set in a line: Potentiometric binding isotherms of surfactants to polyethylene oxide-block-poly(sodium methacrylate). The data set is classed as physicochemical. The note with it: FIG. 1. From the text: While not wishing to be bound by any particular theory, it is believed that the above-described surfactants and block copolymers of opposite charge form stable complexes due to cooperative binding. (See, e.g., Goddard, In Interactions of Surfactants with Polymers and Proteins. Goddard and Ananthapadmanabhan, Eds., pp. 171 et seq., CRC Press, Boca Raton, Ann Arbor, London, Tokyo, 1992). Cooperative binding occurs in the sense that binding of surfactant molecules to the block copolymer is enhanced by the presence of other molecules of the same or a different surfactant already bound to the same copolymer. According to the cooperative binding mechanism which is believed to underlie this invention, surfactant binds electrostatically to the oppositely charged P-type segments of the block copolymer to form supramolecular complexes. […]
B. The binding isotherms of cetylpyridinium bromide (Sigma Co.) and dodecylpyridinium bromide (Sigma Co.) with the polyethylene oxide-block-poly(sodium methacrylate) copolymer were determined potentiometrically by using the following ion-selective electrode: Ag/AgCl | 1 M NH4NO3 agar bridge | reference solution (surfactant, 2.5·10^−4 M) | PVC membrane | sample solution | 1 M NH4NO3 agar bridge | Ag/AgCl. […] The electromotive force (emf) of the cell was measured with a digital Radiometer pHM-83 pH-meter. […]

`CCCCCCCCCCCC[n+]1ccccc1.[Br-]` [dodecylpyridinium bromide]: the “stability of the complex with the block copolymer relative to cetylpyridinium bromide” value is on record as “decreases the stability of the complex more than ten-fold”.
